Here are results for eight compounds from US5401762A, “Aminoalkyl-substituted thiazolin-2-ones, the preparation and use thereof” (BASF Aktiengesellschaft, priority 1991, dated 1995).

Structures can show the parent of a compound that is named as a salt.

The target of the first assay is T1, dopamine D2 receptor (Rattus norvegicus, UniProt P61169).
T1 construct: Striata from rats (Sprague Dawley, Charles River) were homogenized immediately after removal; from tissue; host or cells: rat striatum (Sprague Dawley, Charles River), membranes
T1 sequence (P61169 whole entry): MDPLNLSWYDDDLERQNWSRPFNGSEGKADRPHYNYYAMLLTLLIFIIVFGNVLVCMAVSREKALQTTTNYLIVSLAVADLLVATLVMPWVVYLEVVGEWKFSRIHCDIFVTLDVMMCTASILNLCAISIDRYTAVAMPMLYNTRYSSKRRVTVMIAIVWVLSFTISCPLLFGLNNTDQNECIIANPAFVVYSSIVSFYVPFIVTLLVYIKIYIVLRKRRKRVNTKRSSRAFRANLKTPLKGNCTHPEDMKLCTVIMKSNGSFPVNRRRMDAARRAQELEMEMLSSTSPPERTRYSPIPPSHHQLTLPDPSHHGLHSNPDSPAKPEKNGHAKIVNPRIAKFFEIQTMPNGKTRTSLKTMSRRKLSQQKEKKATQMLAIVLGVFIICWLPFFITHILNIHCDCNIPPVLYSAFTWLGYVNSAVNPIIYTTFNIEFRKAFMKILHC
Briefly: Receptor binding assay: affinity for the dopamine D2 receptor (3H-ADTN displacement, rat striatal membranes). On the set-up: species or system rat (Sprague Dawley).
Conditions: not given
The protocol: The effects of the novel compounds can be shown in the receptor binding assay as follows:
Striata from rats (Sprague Dawley, Charles River) were homogenized immediately after removal in 0.32M sucrose solution (0° C.). The homogenate was filtered through gauze, the filtrate was centrifuged at 1000 xg (5 min at 4° C.) and the resulting supernatant was centrifuged at 40000 xg (4° C., 10 min). The residue (membranes) was taken up in incubation buffer (50 mM tris-HCl, 1 mM MgCl2 and 0.1% ascorbic acid, pH 7.4) and incubated at 37° C. for 20 min. The residue was subsequently washed 2×with incubation buffer by resuspension and recentrifugation. The membranes were frozen in portions in liquid nitrogen.
The assay mixtures (1 ml) were composed of membranes (380 μg of protein), 1 nM ^3 H-ADTN (NEN, Dreieich Germany, specific radioactivity 1.4 TBq/mmol) and 0.1 μM SCH 23390 (total binding) or a) with the addition of 50 nM spiperone (non-specific binding) or b) with-test substance. The mixtures were prepared in triplicate.
After the incubation (40 min at 25° C.) the mixtures were filtered through glass fiber filters (Whatman GF/B) and briefly washed with ice-cold washing buffer (Tris-HCl pH 7.4). The radioactivity retained on the filters was determined by liquid scintillation counting. The non-specific binding comprised about 40-50% of the total binding.
The evaluation of the competition plots and the determination of the dissociation constant took place by iterative non-linear regression analysis based on the "ligand" program (Muson and Rodbard: Anal. Biochem. 107 (1980) 220).
What is called Ki is the dissociation constant of the complex between target and ligand, obtained from inhibition or displacement. Consider `Cc1[nH]c(=O)sc1CCCN1CC=C(c2ccccc2)CC1` [Example 1, 4-Methyl-5-[3-(1,2,3,6-tetrahydro-4-phenylpyridyl)propyl]-thiazolin-2-one hydrochloride], for which the inhibitory constant (Ki) worked out at 8 nM.

Still in this assay, the particulars now being: rat striatal membranes (380 μg protein), 1 nM 3H-ADTN, 0.1 μM SCH 23390, 40 min at 25° C., non-specific: 50 nM spiperone; read-out: Affinity of the test substances for the dopamine D2 receptor, Ki.
Regarding `Cc1[nH]c(=O)sc1CCCN1CCN(c2ccccn2)CC1` [Example 2, 4-Methyl-5-[3-(4-pyrid-2-ylpiperazinyl)propyl]thiazolin-2-one dihydrochloride], the inhibitory constant (Ki) worked out at 15 nM. Turning to `Cc1[nH]c(=O)sc1CCCN1CCN(c2ncccn2)CC1` [Example 7, 4-Methyl-5-[3-(4-pyrimidin-2-ylpiperazinyl)propyl]thiazolin-2-one dihydrochloride], the Ki is 12 nM.

Consider `CCc1ccccc1N1CCN(CCCc2sc(=O)[nH]c2C)CC1` [Example 10, 4-Methyl-5-[3-(4-(2-ethylphenyl)piperazinyl)propyl]thiazolin-2-one dihydrochloride], for which the inhibition constant (Ki) came out at 25 nM.

For `CSc1ccccc1N1CCN(CCCc2sc(=O)[nH]c2C)CC1` [Example 12, 4-Methyl-5-[3-(4-(2-methylthiophenyl)piperazinyl)propyl]thiazolin-2-onehydrochloride], the Ki was determined as 6 nM.

`Cc1[nH]c(=O)sc1CCCN1CCN(c2cccc(C(F)(F)F)c2)CC1` [Example 13, 4-Methyl-5-[3-(4-(3-trifluoromethylphenyl)piperazinyl)propyl]thiazolin-2-one hydrochloride]: the inhibitory constant (Ki) came to 45 nM. On the same count and under the same terms, the value for `CCOc1ccccc1N1CCN(CCCc2sc(=O)[nH]c2C)CC1` [Example 14, 4-Methyl-5-[3-(4-(2-ethoxyphenyl)piperazinyl)propyl]thiazolin-2-one dihydrochloride] was 6 nM.

On to `Cc1c(CCCN2CCN(c3ccccc3)CC2)sc(=O)n1C` [Example 17, 3,4-Dimethyl-5-[3-(4-phenylpiperazinyl)propyl]thiazolin-2-one dihydrochloride], for which the inhibition constant (Ki) was found to be 40 nM.
